This test addresses T1, Vitamin D3 receptor (Homo sapiens, UniProt P11473).
T1 sequence (P11473 whole entry): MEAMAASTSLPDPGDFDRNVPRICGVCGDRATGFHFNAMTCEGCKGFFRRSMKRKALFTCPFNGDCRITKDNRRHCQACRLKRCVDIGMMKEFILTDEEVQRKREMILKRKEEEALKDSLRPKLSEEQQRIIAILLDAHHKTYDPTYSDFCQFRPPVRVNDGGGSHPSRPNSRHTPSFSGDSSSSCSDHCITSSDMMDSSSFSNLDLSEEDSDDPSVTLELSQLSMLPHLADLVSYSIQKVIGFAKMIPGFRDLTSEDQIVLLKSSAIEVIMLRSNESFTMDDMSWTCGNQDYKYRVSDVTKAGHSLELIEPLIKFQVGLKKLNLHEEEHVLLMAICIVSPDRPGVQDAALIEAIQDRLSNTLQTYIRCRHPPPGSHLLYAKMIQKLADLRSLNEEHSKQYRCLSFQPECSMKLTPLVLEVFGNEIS
Description: Displacement of [3H]-1-alpha,25-dihydroxyvitamin D3 from N-terminal GST-tagged human recombinant VDR LBD expressed in Escherichia coli Rosetta2 (DE3) after 16 hrs
`C=C1[C@H](O)CC(=C/C=C2\CCC[C@]3(C)[C@@H]([C@H](C)[C@@H](CCO)CCCC)CC[C@@H]23)C[C@H]1O`: inhibition was half-maximal at 0.26 nM (IC50). With `C=C1[C@H](O)CC(=C/C=C2\CCC[C@]3(C)[C@@H]([C@H](C)[C@H](CC)CCO)CC[C@@H]23)C[C@H]1O` the figure was 2.87 nM; with `C=C1[C@H](O)CC(=C/C=C2\CCC[C@]3(C)[C@@H]([C@H](C)[C@H](CCCC)CC(C)(C)O)CC[C@@H]23)C[C@H]1O`, 0.12 nM; with `C=C1[C@H](O)CC(=C/C=C2\CCC[C@]3(C)[C@@H]([C@H](C)[C@H](CC)CC(C)(C)O)CC[C@@H]23)C[C@H]1O`, 1.55 nM. With `C=C1[C@H](O)CC(=C/C=C2\CCC[C@]3(C)[C@@H]([C@H](C)[C@H](CCCC)CCCO)CC[C@@H]23)C[C@H]1O` the figure was 0.89 nM; with `C=C1[C@H](O)CC(=C/C=C2\CCC[C@]3(C)[C@@H]([C@H](C)[C@H](CC)CCCO)CC[C@@H]23)C[C@H]1O`, 7.16 nM. With `C=C1[C@H](O)CC(=C/C=C2\CCC[C@]3(C)[C@@H]([C@H](C)[C@H](CCCC)CCC(C)(C)O)CC[C@@H]23)C[C@H]1O` the figure was 0.29 nM.

The molecule `C=C1[C@H](O)CC(=C/C=C2\CCC[C@]3(C)[C@@H]([C@H](C)[C@H](CC)CCC(C)(C)O)CC[C@@H]23)C[C@H]1O` registered an IC50 of 2.39 nM. This IC50 is about 8.2-fold higher than that of the molecule before. As to `C=C1[C@H](O)CC(=C/C=C2\CCC[C@]3(C)[C@@H]([C@H](C)[C@H](CCCC)CC(O)(CC)CC)CC[C@@H]23)C[C@H]1O`, half-maximal inhibition (IC50) was put at 1.79 nM. With `C=C1[C@H](O)CC(=C/C=C2\CCC[C@]3(C)[C@@H]([C@H](C)[C@H](CC)CC(O)(CC)CC)CC[C@@H]23)C[C@H]1O` the figure was 1.55 nM.

A word on the IC50: it is the point on the concentration scale where inhibition reaches its midpoint. A high value points to lower potency.

(Values after ChEMBL document CHEMBL3259623, “A mixed population of antagonist and agonist binding conformers in a single crystal explains partial agonism against vitamin D receptor: active vitamin D analogues with 22R-alkyl group” (J Med Chem, 2014).)
